pIC50: −log10 of the molar value.
Experiments:
[1] = target: T1, endogenous MLLT1 in HEK293 cells (Homo sapiens, UniProt Q03111); experiment: Cellular thermal shift assay (CETSA), HEK293 cells; format: cell-based; conditions: Western blot
T1 construct: endogenous in cells; host or cells: HEK293
Description: Supplementary Table 2. Thermal stabilisation of compound 1, 92 and Bromosporine with recombinant human bromodomain proteins. *50 µM compound concentration. †10 µM compound […]
II.VIII Cellular Thermal Shift Assay[6]
HEK293 and MV4;11 cells were cultured at 37 °C in a humidified 5% CO2 atmosphere in DMEM Medium containing 10% FBS, respectively. Cells were grown until approximately […]
DMSO final concentrati on) for 30 minutes. Cells were then collected, washed with PBS, transferred in PCR tubes, and pelleted by centrifugation (300 g, 3 min, RT.) The PBS was removed, and the cell pellets heated at the indicated temperature for 3 minutes in a PCR machine (UNO96 , VMR) and then placed on ice. Lysis buffer (50 mM Tris pH 7.5, 0.8% v/v NP-40, 5% v/v glycerol, 1.5 mM MgCl2, 100 mM NaCl, 25 mM NaF, 1mM Na3VO4, 1mM PMSF, 1mM DTT, 10 μg/mL TLCK, 1 μg/mL Leupeptin, 1 μg/mL Aprotinin, 1 μg/mL soy bean trypsin, ≥250 units/ mL Benzonase) was added and the cells lysed by 3 freeze -thaw cycles in liquid nitrogen. Aggregated proteins were removed by centrifugation (17000 g, 20 min, 4 °C) and the protein concentration of the retained soluble fraction determined. 4× sample loading buffer (Bio-Rad) containing 20% v/v DTT was added and samples were heated for 6 min at 90 °C prior to separation by SDS -PAGE. […]

[2] = Metabolic stability in primary human hepatocytes; format: in vitro ADME
Description: page 98: II.IX in vitro Metabolism Studies Metabolic stability studies were carried out exposing nominated compounds to samples of primary human hepatocytes . Compounds were analysed by LC -MS for loss of parent compound at 0, 10, 30, 60 and 120-minute time points and analysis of metabolites formed . […] 1000000 500000 0 0 min 10 min 30 min 60 min 120 min Supplementary Figure 8.

BRD4(1) = BRD4(1) (Homo sapiens, UniProt O60885); experiment: AlphaScreen selectivity screen, BRD4 (1); format: binding
Text: (§1) IC50 (µM) IC50 (µM) IC50 (µM) IC50 (µM) (µM) (µM) (µM)
(§2) Supplementary Table 1. […]

FALZ = FALZ (Homo sapiens, UniProt Q12830); experiment: AlphaScreen selectivity screen, FALZ; format: binding
Text: as §1, §2

YEATS2 = target: T2, YEATS2 (Homo sapiens, UniProt Q9ULM3); experiment: AlphaScreen selectivity screen, YEATS2; format: binding
T2 construct: made in house; host or cells: E. coli Rosetta
Text: as §1, §2

MV4;11 AML cells = experiment: qPCR gene expression in MV4;11 cells; format: cell-based, human; conditions: 1 μM, 72 h
Description: II.XII Analysis of gene expression by quantitative polymerase chain reaction (qPCR) […]
MV4;11 cells were cultured at 37 °C in a humidified 5% CO2 atmosphere in RPMI medium containing 10% FBS and 1% L-glutamine. Cells were seeded at a density of 2 x 10^6 cells/well in 6 well plates pre-coated in polyhema, to enable suspension culture. Cells were […]
and washing with PBS, RNA was extracted from cells using RNeasy Mini Kit (Qiagen), following the manufacturer’s protocol. Total RNA was quantified by Nanodrop and 500 ng of RNA was converted to cDNA using GoScript Reverse Transcription System (Promega). The final cDNA products were quantified by QPCR using FAM dye-labelled Taqman primers and probe sets (see table below). Data was analysed using the comparative cycle threshold (CT) method where CT values were normalised by subtracting that from an endogenous housekeeping gene (VIC dye-labelled ACTB). The gene expression levels from compound-treated cells are presented as relative to those of DMSO treated control cells. Statistical analyses were carried out using two-way ANOVA (GraphPad Prism 7).
ACTB (Beta Actin) Endogenous Control 4326315E
Supplementary Table 4. Taqman Gene Expression Assays (Life Technologies). Taqman MGB probes have 5’ FAM reporter dye (or VIC) and 3’ non-fluorescent quencher. […]

T1 sequence (Q03111 whole entry): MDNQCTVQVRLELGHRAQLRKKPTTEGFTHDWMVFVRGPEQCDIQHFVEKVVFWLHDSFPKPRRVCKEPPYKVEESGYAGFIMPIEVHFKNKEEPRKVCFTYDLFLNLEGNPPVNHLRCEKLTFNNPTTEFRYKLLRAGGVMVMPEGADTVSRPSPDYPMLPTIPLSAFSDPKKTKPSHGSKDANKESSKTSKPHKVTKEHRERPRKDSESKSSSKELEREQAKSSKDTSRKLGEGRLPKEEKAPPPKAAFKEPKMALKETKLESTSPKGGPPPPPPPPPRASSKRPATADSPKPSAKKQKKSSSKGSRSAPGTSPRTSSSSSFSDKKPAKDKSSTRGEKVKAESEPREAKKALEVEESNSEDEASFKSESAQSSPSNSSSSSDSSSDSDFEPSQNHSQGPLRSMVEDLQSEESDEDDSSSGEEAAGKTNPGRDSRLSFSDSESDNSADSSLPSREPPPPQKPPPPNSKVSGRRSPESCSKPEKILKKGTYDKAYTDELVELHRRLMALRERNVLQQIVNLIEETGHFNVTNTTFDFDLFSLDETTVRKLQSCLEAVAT
T2 sequence (Q9ULM3 200-345 limits assumed): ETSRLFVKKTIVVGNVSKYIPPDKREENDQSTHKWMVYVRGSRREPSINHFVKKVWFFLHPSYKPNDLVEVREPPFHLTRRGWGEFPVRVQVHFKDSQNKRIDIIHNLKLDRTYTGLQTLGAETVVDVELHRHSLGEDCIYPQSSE

## C[C@H]1CCCN1Cc1nc2cc(NC(=O)c3ccc4c(cnn4C)c3)ccc2[nH]1 [Compound 92]
[1]
  heat shock stabilisation of endogenous MLLT1 (CETSA): stabilisation
[2]; 60 min
  parent remaining after 60 min: 48%
[2]; human, read-out: metabolic stability t1/2
  half-life: 53 min
BRD4(1); 10 μM using AS
  inhibition of BRD4 (I): no inhibition
BRD4(1); AlphaScreen selectivity screen
  pIC50: < 5.00
FALZ; 10 μM using AS
  inhibition of FALZ: no inhibition
FALZ; AlphaScreen selectivity screen
  pIC50: < 5.00
YEATS2
  pIC50: < 5.00
MV4;11 AML cells
  gene expression of MYC, MPO, DDN, CTSG, CD86 (qPCR): changed gene expression of 3/5 genes
MV4;11 AML cells; compared to DMSO
  CD86 gene expression (qPCR): increase
  DDN gene expression (qPCR): reduction
  MYC gene expression (qPCR): reduction

Reference: article PMC6348381, “Discovery of an MLLT1/3 YEATS Domain Chemical Probe” (Angewandte Chemie (International Ed. in English), 2018)
